Here are results for three compounds from publication PMC11478334, “Quaternized Curcumin Derivative—Synthesis, Physicochemical Characteristics, and Photocytotoxicity, Including Antibacterial Activity after Irradiation with Blue Light” (Molecules, 2024).

Series [1] is described as follows: Aggregation studies by UV-vis serial dilution. The class given is physicochemical. The following applies: in DMF. How it is done:
The aggregation properties of the studied compounds were evaluated using statistical analysis of the UV–vis absorption spectra during serial dilution. […] This can be associated with the presence of a positive charge that prevents aggregation due to the repulsion of the same charges. […] According to the literature, DMSO can permeate into curcumin clusters and stabilize the non-aggregated molecules due to solvation.
The aggregation studies were performed at ambient temperature. Known amounts of 2, 3, and curcumin as a reference in volumetric flasks were dissolved in DMSO and DMF and left to stir overnight. Then, the solutions were diluted appropriately to achieve concentrations in the range between 1.5 × 10^−6 mol/dm^3 and 5.5 × 10^−5 mol/dm^3. The samples were then moved into quartz cuvettes (l = 10 mm, Hellma, Müllheim, Germany), and their spectra were recorded using a Shimadzu U-1900 spectrophotometer (Shimadzu, Kyoto, Japan). The recorded spectra and numerical data were then used for the determination of the dependence between the maximum peak absorption and the sample concentration according to the A = f(c) function, used further for statistical verification of the Lambert–Beer law.

Series [2] has as its system Aliivibrio fischeri. Description: Microtox acute toxicity test. Format: cell-based. The following applies: for acute toxicity / ecotoxicity verdict: tested at 1, 10 and 100 µM. The source says:
All studied compounds were subjected to a Microtox acute toxicity test. The test is based on bioluminescent Aliivibrio fischeri bacteria, which are very sensitive to the presence of toxic substances. Changes in the toxicity of the environment surrounding the bacterium influence its respiratory processes and translate into the emitted bioluminescence intensity. Therefore, in contact with a toxic substance at a specific concentration, a linear decrease in luminescence is observed. Dimethylsulfoxide was used as a solubilizer of studied compounds in amounts not exceeding 1% v/v. To determine the effect of the solvent alone, 1% DMSO solution in water was also tested.
The acute toxicity of the tested curcumionoids was investigated on a Modern Water Microtox Model 500 apparatus equipped with Modern Water MicrotoxOmni 4.2 software, according to the 81.9% screening test procedure provided by the manufacturer (Modern Water, London, UK). All the reagents and solutions (Microtox Acute Reagent, Microtox Diluent, and Microtox Osmotic Adjusting Solution) were purchased from Tigret (Warsaw, Poland). Solutions of the tested compounds were prepared using DMSO and deionized water. […] Each compound was tested at three final concentrations (1 µM, 10 µM, and 100 µM) and at two time points: 5 min and 15 min. The change in the bacterial bioluminescence was monitored after the addition of the sample solution and compared to the negative control.

A short description of series [3]: UV-vis absorption spectra (spectral properties). The class given is physicochemical. The source says: In the UV–vis spectra of the studied curcumin derivatives 2 and 3, typical absorption bands in the 350–550 nm range were noted (Figure 7). The absorption maxima of 2 and its quaternized derivative 3 were located close to 500 nm in both DMSO and DMF (for 2, λmax 496 nm in DMF and 502 nm in DMSO; for 3, λmax 489 nm in DMF and 495 nm in DMSO), whereas for the unsubstituted curcumin, the absorption maximum was located at 430 nm in DMF and 436 nm in DMSO. This implies that the presence of the BF2 moiety induces a strong bathochromic shift, as reported before. Further conversion of non-ionic 2-(morpholin-4-yl)ethoxy substituents present in 2 into quaternary ammonium cations present in 3 2-(N-methylmorpholinium)ethoxy groups induced a slight […] hypsochromic shift in both solvents. The strong absorption band originates mainly from π-π* electronic transition. To a lesser extent, such peaks come from the n-π* transition, although the importance of this crossing remains unclear.

Series [4] in a line: Singlet oxygen generation quantum yields, indirect method with DPBF or TTF. The class given is physicochemical. How it is done: Singlet oxygen generation quantum yield assessment constitutes a crucial measurement for the prospective photosensitizers applied in photodynamic therapy. For the singlet oxygen generation study, the indirect method was chosen with two different singlet oxygen quenchers—1,3-diphenylisobenzofuran (DPBF) and tetrathiafulvalene (TTF). Due to the partial overlapping of the DPBF band with the studied compounds’ bands in absorption spectra, a singlet oxygen formation assessment was also performed with TTF as a chemical singlet oxygen scavenger. The values obtained for new curcuminoids 2 and 3 were referenced to curcumin and ZnPc.
Singlet oxygen quantum yield measurements for 2, 3, and curcumin were assessed in dimethyl sulfoxide (DMSO; Fisher, Longborough, UK) and N,N-dimethylformamide (DMF; Fisher) at ambient temperature according to the comparative method protocols described previously. The method involves using chemical quenchers of singlet oxygen, 1,3-diphenylisobenzofuran (DPBF; Merck, Steinheim, Germany), tetrathiafulvalene (TTF; Aldrich, Steinheim, Germany), and an unsubstituted zinc(II) phthalocyanine (ZnPc; Aldrich) as a reference compound. The mixtures of curcumins and DPBF or TTF were irradiated with light adjusted to the maximum absorbance wavelength through the M250 monochromator (Optel, Opole, Poland). The changes in spectra under the irradiation were recorded with an OceanOptics Flame spectrophotometer equipped with a DT-MINI-2-GS light source. The singlet oxygen quantum yields were calculated using the previously presented equation [39, 73, 74, 75].

Series [5] in a line: Photodecomposition quantum yields (photostability under visible light). The class given is physicochemical. To be noted: for 10^−5 Φp (photodecomposition quantum yield): visible light over 450 nm; for calculated photodecomposition quantum yields, level / ΦP (photodecomposition quantum yield): visible light λ ≥ 450 nm; for calculated photodecomposition quantum yields, level: solvent not stated. The source says: The absorption spectra of the studied curcumin derivatives 2 and 3 were monitored during the irradiation and compared with curcumin and zinc(II) phthalocyanine (ZnPc) as references (Figure 8). Under visible light irradiation (λ ≥ 450 nm), curcumin derivatives 2 and 3 only slightly decomposed. The calculated quantum yields were at the level of […]. […] Considering the obtained results, the morpholinoethyl and BF2 moieties tend to stabilize the curcumin core and prevent its photodecomposition. Partial reduction in light absorption (expressed by ε values) has also been noted for other photosensitizers subjected to the quaternization when 2-(morpholin-4-yl)ethoxy substituents were transformed into 2-(N-methylmorpholinium)ethoxy ones.
The photostability measurements were conducted in DMSO and DMF at ambient temperature under aerobic conditions according to the previously described method. A 150 W xenon lamp (Optel, Opole, Poland) was utilized as a light source. In order to separate the visible light (>450 nm), the HCC-16 cutting filter was used. The spectral changes under the irradiation were recorded with an OceanOptics Flame spectrophotometer equipped with a DT-MINI-2-GS light source (OceanOptics, Dunedin, FL, USA). The photodegradation quantum yields were then calculated using the previously presented equation [39, 73, 74, 76].

Take `C[N+]1(CCOc2ccc(C=CC3=CC(C=Cc4ccc(OCC[N+]5(C)CCOCC5)cc4)=[O+][B-](F)(F)O3)cc2)CCOCC1` [Compound 3]: the aggregation result in series [1] is reported as “negligible”. For the same compound, the “decrease in A. fischeri bioluminescence” value came to 53% in series [2] (10 µM, after 5 min exposure) and 99% in series [2] (100 µM). In series [2], the “acute toxicity / ecotoxicity verdict” value was “could be ecotoxic at concentrations of 10 µM and 100 µM”. The “absorption maximum λmax” value in series [3] (in DMF) stood at 489 nm; in series [3] (in DMSO), 495 nm. For the same compound, the “singlet oxygen quantum yield” value was found to be 0.026 in series [4] (DPBF quencher, DMF); 0.046 in series [4] (DPBF quencher, DMSO); 0.084 in series [4] (TTF quencher, DMF); 0.057 in series [4] (TTF quencher, DMSO). Further, the “singlet oxygen generation ΦΔ, reaching up to” value in series [4] (TTF used, solvent not stated) is at most 0.1. Moreover, the “10^−5 Φp (photodecomposition quantum yield)” value is 20.10 10^−5 in series [5] (DMF) and 6.13 10^−5 in series [5] (DMSO). For the same compound, the “calculated photodecomposition quantum yields, level” value in series [5] was ~10^−4.
On to Curcumin [reference compound], for which the aggregation entry in series [1] was “strong aggregation”. Besides, the “decrease in A. fischeri bioluminescence” value in series [2] (1 µM) is 0%; in series [2] (10 µM) it was 99%. Also, in series [2], the “acute toxicity / ecotoxicity verdict” value is “reveals ecotoxicity only at concentrations of 100 µM and 10 µM”. The “absorption maximum λmax” value in series [3] (in DMF) was 430 nm; in series [3] (in DMSO), 436 nm. Besides, the “singlet oxygen quantum yield” value is given as 0.098 in series [4] (TTF quencher, DMF) and 0.116 in series [4] (TTF quencher, DMSO). For the same compound, in series [4] (natural curcumin, solvent not stated), the “singlet oxygen generation ΦΔ, estimated” value is recorded as 0.04–0.1. Also, the “10^−5 Φp (photodecomposition quantum yield)” value was 9.99 10^−5 in series [5] (DMF) and 8.31 10^−5 in series [5] (DMSO).
Turning to `F[B-]1(F)OC(/C=C/c2ccc(OCCN3CCOCC3)cc2)=CC(/C=C/c2ccc(OCCN3CCOCC3)cc2)=[O+]1` [Compound 2], the aggregation result in series [1] is on record as “strong aggregation”. Further, the “decrease in A. fischeri bioluminescence” value in series [2] (100 µM) turned out to be 45%. For the same compound, the “effect on A. fischeri bioluminescence” value in series [2] (lower concentrations (below 100 µM)) is given as “negligible”. Further, the figures for the “absorption maximum λmax” value in series [3] (in DMF) and in series [3] (in DMSO) were 496 nm and 502 nm, respectively. The “singlet oxygen quantum yield” value in series [4] (DPBF quencher, DMF) is given as below 0.01; in series [4] (DPBF quencher, DMSO) it was 0.024; in series [4] (TTF quencher, DMF), below 0.01; in series [4] (TTF quencher, DMSO), below 0.01. Besides, the “10^−5 Φp (photodecomposition quantum yield)” value in series [5] (DMF) is recorded as 2.90 10^−5; in series [5] (DMSO), 5.41 10^−5. For the same compound, the “ΦP (photodecomposition quantum yield)” value in series [5] (DMF) is 2.90 × 10^−5; in series [5] (DMSO), 5.41 × 10^−5. The “calculated photodecomposition quantum yields, level” value in series [5] is on record as ~10^−4.
